Experimental findings from patent US11884675B2, “Heterocyclic compounds as triggering receptor expressed on myeloid cells 2 agonists and methods of use” (AMGEN INC., priority 2020, dated 2024) are described below.

The EC50 is the concentration giving half of the maximal effect. Higher therefore signals a need for much substance.

The target in the assay is hTREM2 (Homo sapiens, UniProt Q9NZC2). Nature of the assay: TREM2 activity by cellular Syk phosphorylation (AlphaScreen/AlphaLISA) in TREM2/DAP12-HEK cells, used for Examples 1-305. The format is cell-based. The arrangement: expressed in transfected cells. Particulars: HEK293 Cells. The method in brief:
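Phospho-Syk (Tyr525/526) over total Syk quantified by AlphaScreen in lysates of cloned TREM2/DAP12-overexpressing HEK293 cells after 45 min compound treatment at room temperature, 1% final DMSO. Values expressed relative to 100 nM anti-TREM2 antibody (positive) and isotype IgG (negative) controls; curves fitted with 4-parameter logistic model.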

Where only a bound is given, the exact number is not on record here.

hTREM2, sequence (Q9NZC2 19-230): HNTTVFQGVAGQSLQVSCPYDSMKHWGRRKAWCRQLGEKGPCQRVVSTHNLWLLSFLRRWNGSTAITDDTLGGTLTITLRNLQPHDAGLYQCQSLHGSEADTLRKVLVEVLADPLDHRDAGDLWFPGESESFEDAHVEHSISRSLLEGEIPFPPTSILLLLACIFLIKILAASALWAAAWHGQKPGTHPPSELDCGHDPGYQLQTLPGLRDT
hTREM2, sequence (O43914 22-113 partner): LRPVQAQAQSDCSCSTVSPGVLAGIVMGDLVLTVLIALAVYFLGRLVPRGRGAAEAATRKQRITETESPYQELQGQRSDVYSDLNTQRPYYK

On to `Cc1nc2nc(N3CCO[C@@H](c4cnn(C)c4)C3)nc(C3=CCC(C(F)(F)F)CC3)c2nc1C` (stereo partly drawn) [Example 254, (2S)-4-(6,7-dimethyl-4-(4-(trifluoromethyl)cyclohex-1-en-1-yl)pteridin-2-yl)-2-(1-methyl-1H-pyrazol-4-yl)morpholine], for which the EC50 fell in the range of 50 to 500 nM; the “hTREM2 Emax” value was “+++ (Emax>150 and ≤250)”.
For the molecule `Cc1cc([C@H]2CN(c3nc(C4CC5(C4)CC(F)(F)C5)c4nc(C)c(C)nc4n3)CCO2)ccn1` [Example 56, 4-(6,6-difluorospiro[3.3]heptan-2-yl)-6,7-dimethyl-2-((2S)-2-(2-methyl-4-pyridinyl)-4-morpholinyl)pteridine], the concentration for a half-maximal effect (EC50) is at most 50 nM; the “hTREM2 Emax” value is “++ (Emax>100 and ≤150)”.
`C[C@H]1CN(c2cc3c(c(-c4ccc(Cl)cc4F)n2)CN(C)C3=O)CCO1` [Example 118, 4-(4-chloro-2-fluorophenyl)-2-methyl-6-((2S)-2-methyl-4-morpholinyl)-2,3-dihydro-1H-pyrrolo[3,4-c]pyridin-1-one]: the half-maximal effective concentration (EC50) fell in the range of 500 to 3000 nM; the “hTREM2 Emax” value is “+ (Emax>45 and ≤100)”.
On to `Cc1ccc(-c2nc([C@H]3CCO[C@@H](c4cnn(C)c4)C3)nc3nc(C)c(C)nc23)c(F)c1` (single isomer, unassigned) [Example 183], for which the EC50 was at most 50 nM and the “hTREM2 Emax” value is “++++ (Emax>250)”.
On to `Cc1cc([C@H]2CN(c3nc(-c4ccc(C(F)(F)F)nc4)c4nc(C)c(C)nc4n3)CCO2)ccn1` [Example 293, (S)-4-(6,7-dimethyl-4-(6-(trifluoromethyl)pyridin-3-yl)pteridin-2-yl)-2-(2-methylpyridin-4-yl)morpholine], for which the “hTREM2 Emax” value was “+++ (Emax>150 and ≤250)”.
Still for that read-out and setting: for `Cc1nc2nc([C@H]3CCO[C@@H](c4cnn(C5CC5)c4)C3)nc(-c3ccc(Cl)cc3F)c2nc1C` (single isomer, unassigned) [Example 181] the value was “+++ (Emax>150 and ≤250)”.
With `Cc1cc([C@H]2CN(c3nc4nc(C)c(C)nc4c([C@H]4C[C@H](C(F)(F)F)C4)n3)CCO2)ccn1` [Example 55], the EC50 is at most 50 nM; the “hTREM2 Emax” value is “+++ (Emax>150 and ≤250)”.
As to `Cc1cc([C@H]2CN(c3nc(-c4ccc(F)cc4F)c4ccc(C)nc4n3)CCO2)ccn1` [Example 93, 4-(2,4-difluorophenyl)-7-methyl-2-((2S)-2-(2-methyl-4-pyridinyl)-4-morpholinyl)pyrido[2,3-d]pyrimidine], the EC50 is at most 50 nM; the “hTREM2 Emax” value was “+++ (Emax>150 and ≤250)”.
With `Cc1ccc(-c2nc(N3CCO[C@@H](c4cnn(C5CC5)c4)C3)nc3nc(C)c(C)nc23)c(F)c1` [Example 38, 2-((2S)-2-(1-cyclopropyl-1H-pyrazol-4-yl)-4-morpholinyl)-4-(2-fluoro-4-methylphenyl)-6,7-dimethylpteridine], the EC50 is at most 50 nM; the “hTREM2 Emax” value was “+++ (Emax>150 and ≤250)”.
Turning to `Cc1cc([C@H]2C[C@H](c3nc(-c4ccc(Cl)cc4F)c4ccc(C)nc4n3)CCO2)ccn1` (single isomer, unassigned) [Example 219], the EC50 is 50 to 500 nM and the “hTREM2 Emax” value is “++++ (Emax>250)”.
Take `Cc1nc2nc([C@H]3CCO[C@@H](c4cnn(C)c4)C3)cc(-c3ccc(F)cc3F)c2nc1C` (single isomer, unassigned) [Example 188]: the 50% effective concentration (EC50) is at most 50 nM; the “hTREM2 Emax” value is “+++ (Emax>150 and ≤250)”.
For `Cn1cc([C@H]2CN(c3cc4ncccc4c(-c4ccc(Cl)cc4F)n3)CCO2)cn1` [Example 234, (S)-4-(5-(4-chloro-2-fluorophenyl)-1,6-naphthyridin-7-yl)-2-(1-methyl-1H-pyrazol-4-yl)morpholine], the EC50 is 500 to 3000 nM; the “hTREM2 Emax” value was “+++ (Emax>150 and ≤250)”.
For the molecule `Cc1cc2c(-c3ccc(Cl)cc3F)nc([C@H]3CCO[C@@H](c4cnn(C5CC5)c4)C3)nc2nc1C` (single isomer, unassigned) [Example 199], the EC50 is at most 50 nM and the “hTREM2 Emax” value was “++++ (Emax>250)”.
